Blank lines part the entries; values can stand above or below the compound they belong to. Active and inactive are the calls of the source. The calls are words filed in the database; no cut-off is given here.
Columns and labels:
MCF7 [1] = test: Dark toxicity in human MCF7 cells up to 40 uM after 24 hrs by MTT assay; assay type: cell-based; conditions: mcf7, 24 h
MCF7 [2] = test: Photo-toxicity in human MCF7 cells treated for 24 hrs followed by irradiated with 660 nm of diode laser light at 50mW for 30 mins measured after 24 hrs by MTT assay; assay type: functional, cell-based; conditions: MCF7, light or radiation study
[3] = Intracellular uptake in human MCF7 cell mitochondria at 10 uM after 4 hrs using Hoechst staining by fluorescence microscopic analysis; assay type: ADME; conditions: mcf7, 4 h
[4] = Intracellular uptake in human MCF7 cell nucleus at 10 uM after 4 hrs using Hoechst staining by fluorescence microscopic analysis; assay type: ADME, cell-based; conditions: mcf7, 4 h
[5] = Intracellular uptake in human MCF7 cell mitochondria at 10 uM after 4 hrs using mitotracker green staining by fluorescence microscopic analysis; assay type: ADME; conditions: mcf7, 4 h
[6] = Intracellular uptake in human MCF7 cell F-actin filament at 10 uM after 4 hrs using Hoechst staining by fluorescence microscopic analysis; assay type: ADME, cell-based; conditions: mcf7, 4 h
[7] = Intracellular uptake in human MCF7 cell lysosomes at 10 uM after 4 hrs using Hoechst staining by fluorescence microscopic analysis; assay type: ADME, cell-based, Lysosome; conditions: mcf7, 4 h
MCF7 [8] = test: Cellular uptake in human MCF7 cells assessed as increase of intracellular fluorescence after 20 mins using alexa fluor 488, phalloidin 488/525, mito-tracker 490/516 staining by fluorescence microscopic analysis; assay type: ADME, cell-based; conditions: mcf7, 20 min
MCF7 [9] = test: Cellular uptake in human MCF7 cells assessed as increase of intracellular fluorescence up to 60 mins using alexa fluor 488, phalloidin 488/525, mito-tracker 490/516 staining by fluorescence microscopic analysis; assay type: ADME, cell-based; conditions: mcf7, 1 h
MCF7 [10] = test: Cellular uptake in human MCF7 cells assessed as increase of intracellular fluorescence after 1 hr using alexa fluor 488, phalloidin 488/525, mito-tracker 490/516 staining by FACS analysis relative to control; assay type: ADME, cell-based; conditions: mcf7, 1 h
MCF7 [11] = test: Induction of ROS production in human MCF7 cells treated for 1 hr followed by irradiated with 660 nm of diode laser light at 50mW for 30 mins using DCFDA by fluorescence microscopic analysis; assay type: functional, cell-based
MCF7 [12] = test: Induction of mitochondrial membrane disruption in human MCF7 cells assessed as calcein-AM accumulation in mitochondria at 1 to 3 uM treated for 1 hr followed by irradiated with 660 nm of diode laser light at 50mW for 30 mins measured after 45 mins by fluorescence assay; assay type: functional, cell-based
MCF7 [13] = test: Induction of mitochondrial membrane disruption in human MCF7 cells assessed as calcein-AM accumulation in cytosol treated for 1 hr followed by irradiated with 660 nm of diode laser light at 50mW for 30 mins measured after 45 mins by fluorescence assay; assay type: functional, cell-based
MCF7 [14] = test: Induction of mitochondrial membrane disruption in human MCF7 cells assessed as calcein-AM accumulation in mitochondria treated for 1 hr followed by irradiated with 660 nm of diode laser light at 50mW for 30 mins measured after 45 mins by fluorescence assay; assay type: functional, cell-based
MCF7 [15] = test: Induction of extrinsic apoptosis in human MCF7 cells assessed as increase of casepase-3 level at 3 to 5 uM treated for 1 hr followed by irradiated with 660 nm of diode laser light at 50mW for 30 mins measured after 45 mins using (z-DEVD)2-Magic Red by fluorescence assay; assay type: functional, cell-based
MCF7 [16] = test: (§1) Induction of intrinsic apoptosis in human MCF7 cells assessed as increase of casepase-9 level at 3 to 5 uM treated for 1 hr followed by irradiated with 660 nm of diode laser light at 50mW for 30 mins measured after 45 mins using (Ac-LEHD)2-Rh110 by fluorescence assay; assay type: functional, cell-based
MCF7 [17] = test: Induction of extrinsic apoptosis in human MCF7 cells assessed as increase of casepase-3 level at 5 uM treated for 1 hr followed by irradiated with 660 nm of diode laser light at 50mW for 30 mins measured after 45 mins using (z-DEVD)2-Magic Red by fluorescence assay; assay type: functional, cell-based
MCF7 [18] = test: as §1, with “assay in presence of caspase-2 inhibitor” for “assay”; assay type: functional, cell-based
MCF7 [19] = test: Induction of extrinsic apoptosis in human MCF7 cells assessed as increase of casepase-3 level at 5 uM treated for 1 hr followed by irradiated with 660 nm of diode laser light at 50mW for 30 mins measured after 45 mins using (z-DEVD)2-Magic Red by fluorescence assay in presence of caspase-2 inhibitor; assay type: functional, cell-based
MCF7 [20] = test: (§2) Induction of extrinsic apoptosis in human MCF7 cells assessed as increase of […] level at 6 uM treated for 1 hr followed by irradiated with 660 nm of diode laser light at 50mW for 30 mins measured after 45 mins using (z-IETD)2-Rh110 by fluorescence assay; assay type: functional, cell-based
MCF7 [21] = test: (§3) Induction of extrinsic apoptosis in human MCF7 cells assessed as increase of casepase-3 level at 6 uM treated for 1 hr followed by irradiated with 660 nm of diode laser light at 50mW for 30 mins measured after 45 mins using (z-DEVD)2-Magic Red by fluorescence assay; assay type: functional, cell-based
MCF7 [22] = test: as §2, with “assay in presence of caspase-8 inhibitor Z-IETD-FMK” for “assay”; assay type: functional, cell-based
MCF7 [23] = test: as §3, with “assay in presence of caspase-8 inhibitor Z-IETD-FMK” for “assay”; assay type: functional, cell-based
MCF7 [24] = test: Induction of DNA fragmentation in human MCF7 cell nucleus treated at 5 uM followed by irradiated with 660 nm of diode laser light at 50mW for 30 mins by DNA ladder assay; assay type: functional, cell-based

Drug uptake [3]: Active
Drug uptake [4]: Active
Drug uptake [5]: Active
Drug uptake [6]: Not Active
Drug uptake [7]: Not Active
Drug uptake (MCF7 [8]): Active
Drug uptake (MCF7 [9]): Active
fold change (FC) (MCF7 [10]): 3
Compound: O=S(=O)([O-])c1cccc2cc(-c3c4nc(c(-c5cc6cccc(S(=O)(=O)[O-])c6s5)c5ccc([nH]5)c(-c5cc6cccc(S(=O)(=O)[O-])c6s5)c5nc(c(-c6cc7cccc(S(=O)(=O)[O-])c7s6)c6ccc3[nH]6)C=C5)C=C4)sc12.[Na+].[Na+].[Na+].[Na+]
Activity (MCF7 [1]): Non-toxic
IC50 (MCF7 [2]): 5 µM
Activity (MCF7 [11]): Dose-dependent effect
Activity (MCF7 [12]): Active
Activity (MCF7 [13]): Dose-dependent effect
Activity (MCF7 [14]): Dose-dependent effect
Activity (MCF7 [15]): Active
Activity (MCF7 [16]): Active
Activity (MCF7 [17]): Active
Activity (MCF7 [18]): inactive
Activity (MCF7 [19]): inactive
Activity (MCF7 [20]): Active
Activity (MCF7 [21]): Active
Activity (MCF7 [22]): inactive
Activity (MCF7 [23]): inactive
Activity (MCF7 [24]): Active

Drug uptake [7]: Active
Compound: O=S(=O)(O)c1ccc(-c2c3nc(c(-c4ccc(S(=O)(=O)O)cc4)c4ccc([nH]4)c(-c4ccc(S(=O)(=O)O)cc4)c4nc(c(-c5ccc(S(=O)(=O)O)cc5)c5ccc2[nH]5)C=C4)C=C3)cc1
IC50 (MCF7 [2]): 11.8 µM

From ChEMBL document CHEMBL3603754, “Mitochondria and DNA Targeting of 5,10,15,20-Tetrakis(7-sulfonatobenzo[b]thiophene) Porphyrin-Induced Photodynamic Therapy via Intrinsic and Extrinsic Apoptotic Cell Death” (J Med Chem, 2015)
